The text below walks through data of ChEMBL document CHEMBL2434822, “Discovery of pteridin-7(8H)-one-based irreversible inhibitors targeting the epidermal growth factor receptor (EGFR) kinase T790M/L858R mutant” (J Med Chem, 2013).

Assay [1] concerns NCI-H1975. Briefly: cells. It counts as functional, cell-based. To be noted: Homo sapiens, NCI-H1975, 72 h.
The target of assay [2] is Epidermal growth factor receptor (Homo sapiens, UniProt P00533, L858R). Briefly: Inhibition of EGFR L858R mutant (unknown origin) using Tyr 4 peptide as substrate after 1.5 hrs by FRET-based Z'-LYTE assay. It counts as protein assay. The note with it: for pIC50: read-out: IC50.
Assay [3] deals with Epidermal growth factor receptor (Homo sapiens, UniProt P00533, L858R/T790M). As to the kind of experiment: (§1) Inhibition of EGFR T790M/L858R double mutant (unknown origin) using Tyr 4 peptide as substrate after 1.5 hrs by FRET-based Z'-LYTE assay. Format: protein assay.
Assay [4] deals with Epidermal growth factor receptor (Homo sapiens, UniProt P00533). Briefly: Inhibition of wild type EGFR (unknown origin) using Tyr 4 peptide as substrate after 1.5 hrs by FRET-based Z'-LYTE assay. The note with it: for pIC50: read-out: IC50.
Assay [5] can be described thus: Antiproliferative activity against gefitinib-sensitive human HCC827 cells harboring EGFR E746 to A750 deletion after 72 hrs by MTS assay. Format: functional, cell-based. The note with it: HCC827, 72 h.
Assay [6] addresses Epidermal growth factor receptor (Homo sapiens, UniProt P00533, T790M/L858R). Described as §1. It counts as protein assay.

pIC50: −log10 of the molar value.

As usually defined, the pIC50 is the negative decadic logarithm of the IC50, by convention in mol/L. In the case of `C=CC(=O)Nc1cccc(-n2c(=O)cnc3cnc(Nc4ccc(OC)cc4)nc32)c1`, the negative-log IC50 (pIC50) was 7.20 in assay [1]; 7.83 in assay [2]; 8.25 in assay [3]; 7.86 in assay [4]; 8.02 in assay [5].
The corresponding values for `COc1ccc(-n2c(=O)cnc3cnc(Nc4cccc(N)c4)nc32)cc1` are less than 5.00, 5.09, 5.42, 4.74 and less than 5.00.
The corresponding values for `C=CC(=O)Nc1cccc(-n2c(=O)cnc3cnc(Nc4ccc(NC(C)=O)cc4)nc32)c1` are 5.39, 7.85, 8.34, 7.90 and 6.41.
Consider `C=CC(=O)Oc1ccc(-n2c(=O)cnc3cnc(Nc4ccc(OC)cc4)nc32)cc1`, for which the pIC50 was 5.23 in assay [1]; 6.91 in assay [2]; 7.23 in assay [3]; 7.22 in assay [4]; 5.07 in assay [5].
Take `CCC(=O)Nc1cccc(-n2c(=O)cnc3cnc(Nc4ccc(OC)cc4)nc32)c1`: the negative-log IC50 (pIC50) in assay [1] and in assay [5] was less than 5.00 in each case. For the same compound, the IC50 entry in assay [2], in assay [6] and in assay [4] was “Not Active” in each case.
Take `COc1ccc(-n2c(=O)cnc3cnc(Nc4ccc(N)cc4)nc32)cc1`: the negative-log IC50 (pIC50) in assay [1] was less than 5.00; in assay [2], 5.07; in assay [4] it was 4.59; in assay [5], less than 5.00.
Regarding `C=CC(=O)Nc1cccc(-n2c(=O)cnc3cnc(Nc4ccc(C(N)=O)cc4)nc32)c1`, the pIC50 was 5.07 in assay [1]; 7.93 in assay [2]; 8.40 in assay [3]; 7.92 in assay [4]; 6.29 in assay [5].
For `C=CC(=O)Nc1cccc(-n2c(=O)cnc3cnc(Nc4ccc(Cl)cc4)nc32)c1`, the pIC50 in assay [1] is 5.65; in assay [2] it was 7.31; in assay [3] it was 7.75; in assay [4], 7.33; in assay [5] it was 6.76.
Turning to `COc1ccc(Nc2ncc3ncc(=O)n(-c4ccc(N)cc4)c3n2)cc1`, the pIC50 in assay [1] and in assay [5] was less than 5.00 throughout. Besides, the IC50 entry in assay [2], in assay [6] and in assay [4] was “Not Active” throughout.
Regarding `COc1ccc(Nc2ncc3ncc(=O)n(-c4cccc(NC(=O)/C=C/CN(C)C)c4)c3n2)cc1`, the pIC50 is 6.25 in assay [1]; 4.48 in assay [2]; 4.25 in assay [3]; 4.58 in assay [4]; 6.04 in assay [5].
The corresponding values for `C=CC(=O)Nc1ccc(-n2c(=O)cnc3cnc(Nc4ccc(N5CCOCC5)cc4)nc32)cc1` are less than 5.00, 5.06, 5.46, 5.25 and 5.14.
With `C=CC(=O)Nc1cccc(-n2c(=O)cnc3cnc(Nc4ccc(N5CCN(C)CC5)cc4)nc32)c1`, the pIC50 in assay [1] is 7.21; in assay [2] it was 8.88; in assay [3], 9.17; in assay [4], 8.92; in assay [5], 8.40.
The corresponding values for `COc1ccc(Nc2ncc3ncc(=O)n(-c4ccc(NC(=O)/C=C/CN(C)C)cc4)c3n2)cc1` are less than 5.00, 7.12, 7.50, 7.23 and 5.08.
The corresponding values for `C=CC(=O)Nc1cccc(-n2c(=O)cnc3cnc(Nc4ccc(N5CCCC5)cc4)nc32)c1` are 6.24, 7.89, 8.30, 7.82 and 7.15.
As to `CN(C)C/C=C/C(=O)Nc1ccc(-n2c(=O)cnc3cnc(Nc4ccccc4)nc32)cc1`, the figures for the negative logarithm of the IC50 (pIC50) in assay [1] and in assay [5] were less than 5.00 and 5.30, respectively. For the same compound, the IC50 result in assay [2], in assay [6] and in assay [4] was “Not Active” each time.
For the compound `C=CC(=O)Nc1ccc(-n2c(=O)c(C)nc3cnc(Nc4ccc(OC)cc4)nc32)cc1`, the pIC50 is less than 5.00 in assay [1]; 5.14 in assay [2]; 4.46 in assay [3]; 4.79 in assay [4]; 5.56 in assay [5].
The corresponding values for `C=CC(=O)Nc1cccc(-n2c(=O)cnc3cnc(Nc4ccc(N(CC)CC)cc4)nc32)c1` are 5.39, 7.85, 8.33, 7.84 and 7.35.
With `C=CC(=O)Nc1ccc(-n2c(=O)cnc3cnc(Nc4ccc(Cl)cc4)nc32)cc1`, the pIC50 was less than 5.00 in assay [1]; 6.30 in assay [2]; 6.84 in assay [3]; 6.43 in assay [4]; less than 5.00 in assay [5].
Regarding `C=CC(=O)Nc1ccc(-n2c(=O)cnc3cnc(Nc4ccc(OC)cc4)nc32)cc1`, the pIC50 in assay [1] was 5.66; in assay [2], 4.62; in assay [3] it was 5.32; in assay [4] it was 5.29; in assay [5], 5.77.
On to `C=CC(=O)Nc1cccc(-n2c(=O)cnc3cnc(Nc4ccc(N5CCCCC5)cc4)nc32)c1`, for which the negative logarithm of the IC50 (pIC50) in assay [1] is 6.53; in assay [2], 7.83; in assay [3], 8.29; in assay [4], 7.80; in assay [5], 7.60.
The corresponding values for `C=CC(=O)Nc1cccc(-n2c(=O)cnc3cnc(Nc4ccc(N5CCOCC5)cc4)nc32)c1` are 6.59, 8.14, 8.54, 8.16 and 7.82.
For `COc1ccc(Nc2ncc3ncc(=O)n(-c4cccc(N)c4)c3n2)cc1`, the negative-log IC50 (pIC50) in assay [1] is less than 5.00; in assay [2], 4.25; in assay [3] it was 4.67; in assay [5], less than 5.00. The IC50 result in assay [4] was “Not Active”.
Turning to `C=CC(=O)Nc1ccc(Nc2ncc3ncc(=O)n(-c4ccc(OC)cc4)c3n2)cc1`, the pIC50 in assay [1] was 5.88; in assay [2], 4.15; in assay [3], 4.15; in assay [4] it was 4.47; in assay [5] it was 5.84.
Turning to `CCC(=O)Nc1ccc(-n2c(=O)cnc3cnc(Nc4ccc(OC)cc4)nc32)cc1`, the pIC50 in assay [1] and in assay [5] was less than 5.00 throughout. Moreover, the IC50 entry in assay [2], in assay [6] and in assay [4] was “Not Active” in each case.
Take `C=CC(=O)Nc1ccc(-n2c(=O)cnc3cnc(Nc4ccc(N5CCN(C)CC5)cc4)nc32)cc1`: the pIC50 in assay [1] was 5.21; in assay [2] it was 5.82; in assay [3] it was 6.16; in assay [4], 5.96; in assay [5], 5.63.
On to `C=CC(=O)Nc1cccc(Nc2ncc3ncc(=O)n(-c4ccc(OC)cc4)c3n2)c1`, for which the pIC50 in assay [1] is 5.63; in assay [5] it was 5.91. Moreover, the IC50 entry in assay [2], in assay [6] and in assay [4] was “Not Active” each time.
Regarding `C=CC(=O)Nc1ccc(-n2c(=O)cnc3cnc(Nc4ccc(N5CCN(C)CC5)cc4OC)nc32)cc1`, the pIC50 was 5.56 in assay [1]; 6.30 in assay [2]; 6.57 in assay [3]; 6.40 in assay [4]; 6.30 in assay [5].
Regarding `C=CC(=O)Nc1ccc(-n2c(=O)cnc3cnc(Nc4ccccc4)nc32)cc1`, the pIC50 in assay [1] and in assay [5] was less than 5.00 throughout. For the same compound, the IC50 result in assay [2], in assay [6] and in assay [4] was “Not Active” in each case.
